Test results published in patent US9492447B2, “Cannabinoid receptor modulators” (Arena Pharmaceuticals, Inc., priority 2011, dated 2016).

How the values were obtained:
Assay type in all cases: in vivo, rat
[1] = system: MIA model of osteoarthritis in rats; test: Monosodium iodoacetate (MIA) model of osteoarthritis pain; details: 3, 10 and 30 mg/kg orally; one hour after dosing; FIG. 2
Description: Injection of monosodium iodoacetate (MIA) into a joint (Kalbhen, 1987) inhibits the activity of glyceraldehyde-3-phosphate dehydrogenase in chondrocytes, resulting in disruption of glycolysis and eventually in cell death. The progressive loss of chondrocytes results in histological and morphological changes of the articular cartilage, closely resembling those seen in osteoarthritis patients.
The osteoarthritis was induced in 200 g male Sprague Dawley rats. […]
Typically during disease progression, there was an inflammation period of 0-7 days post-intra-articular injection followed by progressive degeneration of the cartilage and subchondral bone from days 14-55. […] Tactile allodynia was measured via von Frey assay, hind limb paw weight distribution was monitored using an incapacitence tester (Columbus Instruments, Columbus, Ohio, USA) and hind limb grip strength was measured using a grip strength meter (Columbus Instruments, Columbus, Ohio, USA). […] Hind paw weight distribution was determined by placing rats in a chamber so that each hind paw rests on a separate force plate of the incapacitence tester. The force exerted by each hind limb (measured in grams) is averaged over a 3 second period. Three measurements were taken for each rat, and the change in hind paw weight distribution calculated. […]

[2] = system: FCA-induced hyperalgesia in rats; test: FCA-induced hyperalgesia model of inflammatory pain; details: 0.1, 1, 3, 10 and 30 mg/kg orally; 1 h post dosing; Analgesy-Meter; FIG. 1
Experimental: Male Sprague Dawley rats from Harlan (200-225 g when received) were used. Upon arrival, rats were housed 4 per cage in shoe-box polycarbonate cages with wire tops, wood chip bedding and suspended food and water bottles. Animals were acclimated for 5-7 days prior to being injected with Freund's complete adjuvant (FCA) (Sigma; catalog #5881).
2 days (48 h) before testing compounds, baseline readings of all rats were taken right before FCA injection. Rats were then injected with 50 μL FCA containing 1 mg/mL Mtb (Mycobacterium tuberculosis) in right hind footpad under inhalation anesthesia (isoflurane). 48 hours after FCA injection, readings were taken as pre-dosing baseline and then rats were dosed orally with 0.5 mL of vehicle or compound (0.5 mL per 250 g rat). Readings were taken again at 1 h post dosing. All readings were taken with an Analgesy-Meter (Ugo Basile) which measures mechanical hyperalgesia via paw pressure.
FCA-induced hyperalgesia was tested with an Analgesy-Meter. Briefly, the Analgesy Meter applied an increasing pressure to the right hind paw. The paw withdrawal threshold was the pressure leading to withdrawal.
Meanwhile a group of rats were dosed orally with 50 mg/kg of Diclofenac as a positive control. Readings were taken again at 1 h post dosing. Dosing volume was 500 μL per 250 g rat.

[3] = system: paclitaxel-induced allodynia in Sprague Dawley rats; test: Paclitaxel-induced allodynia; details: 10 mg/kg orally
Experimental: Therapy however is often associated with the unwanted side affects of painful peripheral neuropathy.
Male Sprague Dawley rats [200-250 g](Harlan Laboratories Inc., Livermore, Calif.) were housed three per cage and maintained in a humidity-controlled (40-60%) and temperature-controlled (68-72° F.) facility on a 12 h: 12 h light/dark cycle (lights on at 6:30 am) with free access to food (Harlan Teklad, Orange, Calif., Rodent Diet 8604) and water. Rats were allowed one week of habituation to the animal facility before starting treatment.
Rats were treated intraperitoneally, with 2 mg/kg of paclitaxel (Sigma Aldrich, Saint Louis, Mo.) in 10% Cremophor vehicle (500 μL) on days 0, 2, 4, and 6.
Tactile allodynia was tested using von Frey filaments. Briefly, the von Frey assay was performed using the standardized up down method with von Frey filaments, that determine the tactile sensitivity of the paw. By applying the increasingly or decreasingly thicker filaments to the paw in a logarithmic scale of actual force, a linear scale of perceived intensity is determined.
Eight days after the start of paclitaxel dosing, a baseline measurement (von Frey assay) was performed prior to dosing of compounds. […] As a positive control, rats were dosed intraperitoneally with 100 mg/kg gabapentin in water. The dosing volume for oral and peritoneal treatment was 500 μL. […]

CC(C)(CO)NC(=O)c1nn(-c2ccc(F)cc2F)c2c1C[C@H]1C[C@@H]21 [Compound 493, (1aR,5aR)-2-(2,4-Difluoro-phenyl)-1a,2,5,5a-tetrahydro-1H-2,3-diaza-cyclopropa[a]pentalene-4-carboxylic Acid (2-Hydroxy-1,1-dimethyl-ethyl)-amide]
Increase in paw withdrawal threshold (PWT) in comparison with vehicle [1]: exhibiting therapeutic efficacy | increase in paw withdrawal threshold (PWT) in comparison with the vehicle [2]: exhibited therapeutic efficacy | time of maximum efficacy post-dosing ([3]; time course): 1 h | increase in paw withdrawal threshold (PWT) in comparison with vehicle and gabapentin ([3]; von Frey 30, 60 and 180 minutes after dosing, FIG. 3): exhibiting therapeutic efficacy
